From US4874773A, “3-Aminocarbonyl-1,4-dihydropyridine-5-carboxylic acid compounds, and pharmaceutical composition containing the same” (priority 1985, dated 1989)
pEC50: −log10 of the molar value. Entries after “also recorded” stand apart in the source; their conditions may differ. Like-named read-outs stand apart in the source and are kept apart here.

How the values were obtained:
[1] = tested on: isolated heart; assay: Experiment 2-1 Activity on isolated heart; parameters: species or system Japanese white rabbit; settings: for activation at 3 µg/heart / inhibition at 3 µg/heart, 3 µg/heart / inhibition at 3 µg/heart: Oryctolagus cuniculus, 3 μg/heart; for activation at 3 µg/heart: read-out: Increase of coronary perfusion; for inhibition at 3 µg/heart, 3 µg/heart: read-out: Inhibitory rate of systole; for inhibition at 3 µg/heart: read-out: Reducing rate of heart pulse
Procedure: Japanese white rabbit (weighing 2.2-2.5 kg) was anesthetized by introvenous injection of nembutal (20 mg/kg) and then sacrificed by bleeding from common carotid artery. […] After stabilizing the heart preparation for 90 minutes, the test compound was administered. There were measured the perfusion volume with a drop-counting meter (ET-600G type, manufactured by Nippon Koden K.K.) and the heart pulse and the contractility via a force-displacement transducer (FD pick up, SB-IT type, manufactured by Nippon Koden K.K.) (for measuring heart pulse, an instant pulse meter (AT-601G type, minufactured by Nippon Koden K.K.) being further used).

[2] = tested on: Spontaneously hypertensive male rats; assay: Experiment 1-1 Hypotensive activity (oral, conscious spontaneously hypertensive rats); assay type: in vivo, rat; settings: for Recovering time / Time for recovering 1/2 of max. hypotension / Time until reaching to max. hypotension / Maximum hypotension: 10 mg/kg oral; for Maximum hypotension: mean blood pressure; for hypotensive activity (in words): Table 4, comparison with nifedipine and nicardipine hydrochloride where stated
[3] = tested on: isolated aorta; assay: Experiment 3 Relaxing activity on the isolated aorta (30 mM KCl contracted); parameters: species or system Japanese white rabbit; settings: for pEC50: Oryctolagus cuniculus, 30 mM KCl contraction, maximum relaxation by papaverine = 100%, read-out: EC50 (concentration for 50% relaxation); for relaxing / vasodilating activity on isolated aorta (in words): Table 8, comparison with nifedipine and nicardipine hydrochloride, etc. where stated
Procedure: Japanese white rabbit (weighing 2.3-2.7 kg) was sacrificed by bleeding from common carotid artery. Immediately, the aorta was isolated and cut into a sprial strip. The strip preparation was vertically suspended under a resting tension of 2.0 g in a tissue bath containing 20 ml of modified Ringer solution while bubbling with a mixture of 95% O2 +5% CO2 by connecting one end of the strip to a lever of the above-mentioned FD pick up. The aortic strip was contracted with 30 mM KCl. When the contraction became constant, the test compound was accumulatively administered, and the relaxing effect was measured. After the final treatment, 10^-4T M papaverine was administered and the maximum relaxation obtained thereby was taken as 100%. In comparison with the maximum relaxation obtained by papaverine, the rate of relaxation by the test compounds was evaluated, and the concentration of the test compounds for obtaining 50% relaxation (EC50) was calculated.
The test compound was dissolved in ethanol, and the solution was diluted in 100 to 1×10^4 folds with a nutrient solution, and the diluted solution was administered.

[4] = tested on: isolated heart; assay: Experiment 2-2 Activity onto the isolated heart (with duration); parameters: species or system Japanese white rabbit; settings: 1 μg/heart
Procedure: Japanese white rabbit (weighing 2.2-2.5 kg) was anesthetized by introvenous injection of nembutal (20 mg/kg) and then sacrificed by bleeding from common carotid artery. […] There were measured the perfusion volume with a drop-counting meter (ET-600G type, manufactured by Nippon Koden K.K.) and the heart pulse and the contractility via a force-displacement transducer (FD pick up, SB-IT type, manufactured by Nippon Koden K.K.) (for measuring heart pulse, an instant pulse meter (AT-601G type, minufactured by Nippon Koden K.K.) being further used).
The test compounds were dissolved in ethanol, and the solution was diluted in 100-fold with purified water, and the diluted solution was administered in an amount of 0.1 ml/heart (i.e. 3 μg/heart).
The activity was measured in the same manner as described in Experiment 2-1 except that in some test compounds, the dose was in 1 μg/heart. Besides, the duration of the activity was evaluated by counting the time until the coronary perfusion volume became to the initial level before the administration of the test compound.

[5] = tested on: Spontaneously hypertensive male rats; assay: Experiment 1-2 Hypotensive activity (oral, 8 hours); assay type: in vivo, rat
Procedure: Spontaneously hypertensive male rats (13-15 week age, one group: 3 rats) were used. […] The rats were fixed in a Howlman cage without fasting, and the femoral arterial pressure was measured by a direct method without anesthesia with a cannula which was previously inserted into the femoral artery of the animal, via a pressure transducer (MPU-0.5, manufactured by Nippon Koden K.K.). The test compounds were orally administered in the form of a suspension in 0.5% methyl cellulose solution in a dose of 10 mg/kg (in some compounds, 3 mg/kg). In the control group, only 0.5% methyl cellulose solution was administered likewise. The blood pressure was measured for 5 hours after the administration of test compounds.
The hypotensive activity was measured in the same manner as described in Experiment 1-1 except that the rats were used in 3-5 rats per each group, and the test compounds were administered in a dose of 1 mg/kg (some compounds, 3 mg/kg), and the blood pressure was measured for 8 hours after the administration of test compounds.

pEC50 [3] | SMILES | activation at 3 µg/heart [1] [%] | inhibition at 3 µg/heart, 3 µg/heart [1] [%] | inhibition at 3 µg/heart [1] [%] | Recovering time [2] [h] | Time for recovering 1/2 of max. hypotension [2] [h] | Time until reaching to max. hypotension [2] [min] | Maximum hypotension [2] [mmHg] | relaxing / vasodilating activity on isolated aorta (in words) [3] | other results
7.74 | CCOC(=O)C1=C(C)NC(C)=C(C(=O)NC(C)C)C1c1ccccc1[N+](=O)[O-] (centres unmarked) [Example 43] | 35 | 35 | 40 | 5.0 | 2.5 | 15 | 68 | the same or more potent activity | –
7.70 | COC(=O)C1=C(C)NC(C)=C(C(=O)NC(C)C)C1c1ccccc1[N+](=O)[O-] (centres unmarked) [Example 5, methyl 2,6-dimethyl-3-isopropylaminocarbonyl-4-(o-nitrophenyl)-1,4-dihydropyridine-5-carboxylate] | 28 | 15 | 25 | > 5.0 | 5.0 | 15 | 70 | the same or more potent activity | coronary vasodilating activity (in words) ([1]; Table 6, comparison with nifedipine and nicardipine hydrochloride, etc.): the same or more potent coronary vasodilating activity with longer duration; hypotensive activity (in words) [2]: the same or more potent activity with longer duration
6.89 | CC1=C(C(=O)NC(C)C)C(c2ccccc2[N+](=O)[O-])C(C(=O)OCCCC(C)C)=C(C)N1 (centres unmarked) [Example 51] | 40 | 30 | 25 | > 5.0 | 3.0 | 30 | 40 | – | –
6.24 | CCCCCCCOC(=O)C1=C(C)NC(C)=C(C(=O)NC(C)C)C1c1ccccc1[N+](=O)[O-] (centres unmarked) [Example 1, n-heptyl 2,6-dimethyl-3-isopropylaminocarbonyl-4-(o-nitrophenyl)-1,4-dihydropyridine-5-carboxylate] | 25 | 40 | 15 | > 5.0 | > 5.0 | 30 | 78 | somewhat weak vasodilating activity | inhibitions on the heart pulse and contactility (in words) ([1]; Table 6): moderate inhibitions on the heart pulse and contactility; hypotensive activity (in words) [2]: the same or more potent activity with longer duration; also recorded: potent hypotensive activity
7.70 | CC1=C(C(=O)NC(C)C)C(c2ccccc2[N+](=O)[O-])C(C(=O)OCCC(C)C)=C(C)N1 (centres unmarked) [Example 47] | 35 | 5 | 11 | 3.0 | 2.0 | 30 | 32 | the same or more potent activity | –
7.77 | CCCOC(=O)C1=C(C)NC(C)=C(C(=O)NC(C)C)C1c1ccccc1[N+](=O)[O-] (centres unmarked) [Example 44] | 30 | 20 | 16 | 4.0 | 2.5 | 15 | 60 | the same or more potent activity | –
7.92 | CCCCOC(=O)C1=C(C)NC(C)=C(C(=O)NC(C)C)C1c1ccccc1[N+](=O)[O-] (centres unmarked) [Example 6, n-butyl 2,6-dimethyl-3-isopropylaminocarbonyl-4-(o-nitrophenyl)-1,4-dihydropyridine-5-carboxylate] | 35 | 25 | 13 | 5.0 | 3.5 | 15 | 57 | the same or more potent activity | –
7.52 | CCCCCOC(=O)C1=C(C)NC(C)=C(C(=O)NC(C)C)C1c1ccccc1[N+](=O)[O-] (centres unmarked) [Example 8, n-pentyl 2,6-dimethyl-3-isopropylaminocarbonyl-4-(o-nitrophenyl)-1,4-dihydropyridine-5-carboxylate] | 35 | 13 | 5 | 5.0 | 4.0 | 15 | 30 | the same or more potent activity | –

Further lines, the compound ahead of its results:

SMILES | pEC50 [3] | activation at 3 µg/heart [1] [%] | inhibition at 3 µg/heart, 3 µg/heart [1] [%] | inhibition at 3 µg/heart [1] [%] | Recovering time [2] [h] | Time for recovering 1/2 of max. hypotension [2] [h] | Time until reaching to max. hypotension [2] [min] | Maximum hypotension [2] [mmHg] | relaxing / vasodilating activity on isolated aorta (in words) [3] | other results
CCCCOC(=O)C1=C(C)NC(C)=C(C(=O)NCCC)C1c1cccc([N+](=O)[O-])c1 (centres unmarked) [Example 68] | 7.00 | 29 | 6 | 11 | 1.0 | 0.5 | 15 | 5 | – | –
CC1=C(C(=O)NC(C)C)C(c2cccc([N+](=O)[O-])c2)C(C(=O)OCC(C)C)=C(C)N1 (centres unmarked) [Example 65] | 6.89 | 8 | 5 | 8 | 2.5 | 1.5 | 30 | 50 | – | –
CC1=C(C(=O)NC(C)C)C(c2ccccc2[N+](=O)[O-])C(C(=O)OC(C)C)=C(C)N1 (centres unmarked) [Example 45] | 6.77 | 0 | 0 | 0 | 1.5 | 0.5 | 15 | 15 | – | –
CCCCCCCCCCOC(=O)C1=C(C)NC(C)=C(C(=O)NC(C)C)C1c1ccccc1[N+](=O)[O-] (centres unmarked) [Example 52] | 6.38 | 20 | 45 | 15 | 1.0 | 0.5 | 15 | 12 | – | inhibitions on the heart pulse and contactility (in words) ([1]; Table 6): moderate inhibitions on the heart pulse and contactility
C#CCNC(=O)C1=C(C)NC(C)=C(C(=O)OCCCCCCCCC)C1c1ccccc1[N+](=O)[O-] (centres unmarked) [Example 79, n-nonyl 2,6-dimethyl-3-propargylaminocarbonyl-4-(o-nitrophenyl)-1,4-dihydropyridine-5-carboxylate] | – | – | – | – | – | – | – | – | – | Coronary perfusion Duration ([4]; time until perfusion volume returned to initial level): 60 min; activation at 1 µg/heart ([4]; Oryctolagus cuniculus, read-out: Coronary perfusion Increase): 50%; inhibition at 1 µg/heart ([4]; Oryctolagus cuniculus, read-out: Inhibitory rate of systole): 40%; inhibition at 1 µg/heart ([4]; Oryctolagus cuniculus, read-out: Reducing rate of heart pulse): 30%; Maximum hypotension ([5]; 1 mg/kg oral): 45 mmHg; Recovering time ([5]; 1 mg/kg oral): 5.0 h; Time for recovering 1/2 of max. hypotension ([5]; 1 mg/kg oral): 3.0 h; Time until reaching to max. hypotension ([5]; 1 mg/kg oral): 60 min; hypotensive activity (in words) ([5]; Table 5, comparison with nifedipine and nicardipine hydrochloride where stated): the same or more potent hypotensive activity with longer duration
CCCCOC(=O)C1=C(C)NC(C)=C(C(=O)NC(C)C)C1c1cccc([N+](=O)[O-])c1 (centres unmarked) [Example 64] | 6.82 | 12 | 0 | 4 | 5.0 | 2.0 | 30 | 57 | – | –
